Test results as given in patent US9682928B2 (NeuroPro Therapeutics, Inc., priority 2009, dated 2017).
Like-named read-outs stand apart in the source and are kept apart here.

Tests used:
[1] = tested on: Sprague-Dawley rats; experiment: Kainic acid induced seizures in rats; format: in vivo, rat; parameters: key to Seizures Severity Mean ± SD (grade 0 to IV): seizure grade 0 = no response to IV = status epilepticus; conditions: 20 μmoles/kg IP; for Seizures Severity Mean ± SD (grade 0 to IV) / Seizures Mean ± SD (1 = yes, 0 = no): KA 15 mg/kg i.p.; for Seizures Mean ± SD (1 = yes, 0 = no): 2 hours; for change in vivo at 20 µmol/kg: Rattus norvegicus, 2 h, vs DMSO control
Description: Formulation of kainic acid was performed by NTS as a stock solution by reconstituting kainic acid with (100%) saline that was stored at 4° C. Vehicle control received saline solution. […] The research investigators were blinded to the treatment groups.
Solutions were prepared fresh daily just prior to use; dosing of all 10 rats with any given compound occurred on a single day after preparing the dosing solution. […] Unused remaining dosing solutions were stored frozen.
Animals were maintained in a temperature- and light-controlled environment in accord with the principles and procedures of the National Institutes of Health Guidelines for Care and Use of Laboratory Animals. Seizures were induced in adult, male Sprague-Dawley rats (260-300 g) by injection of KA (15 mg/kg, i.p.). In addition, animals were injected with test compounds following kainic acid to determine the effects on protection from epilepsy. Animals were monitored behaviorally for seizures for 2 hours after injection.
Seizure activity was initially characterized as either yes (1) or no (0) within a 2 hour period following injection of KA. A seizure severity grade was assigned based on the maximal response achieved on a scale from 0 to IV as follows: 0, no response; I, single limb clonus and scratching; II, multiple limb clonus and staggering gait; […], limb clonus, tonic extension of limbs and falling; IV, continuous grade III seizures for longer than 30 min (status epilepticus).
The results were expressed as the mean±standard deviation (SD). The significance of difference in the epileptic data was analyzed using a one-way analysis of variance (ANOVA) followed by Fisher's post hoc test. Repeated-measures ANOVA were computed on the monitoring data and the significance of the difference among groups were evaluated by Fisher's post hoc test.
All groups were subjected to kainic acid.
The induction of seizures in rats with kainic acid was determined as either yes seizures (1) or no seizures (0).

[2] = biological target: T1, Na+K+Cl− co-transporter (Rattus norvegicus, UniProt E9PTX9); experiment: Na+K+Cl− cotransporter assay, 86Rb uptake in A7r5 cells; format: cell-based; conditions: 10 minutes at 37° C.; for inhibition at 10 µM: read-out: % Inhibition of Control Values; for remaining activity at 10 µM: read-out: % of Control Value; for % Inhibition of Control Values / % of Control Value: 10 μM
T1 construct: endogenous in cells; host or cells: A7r5 cells
T1 sequence (E9PTX9 1-1203): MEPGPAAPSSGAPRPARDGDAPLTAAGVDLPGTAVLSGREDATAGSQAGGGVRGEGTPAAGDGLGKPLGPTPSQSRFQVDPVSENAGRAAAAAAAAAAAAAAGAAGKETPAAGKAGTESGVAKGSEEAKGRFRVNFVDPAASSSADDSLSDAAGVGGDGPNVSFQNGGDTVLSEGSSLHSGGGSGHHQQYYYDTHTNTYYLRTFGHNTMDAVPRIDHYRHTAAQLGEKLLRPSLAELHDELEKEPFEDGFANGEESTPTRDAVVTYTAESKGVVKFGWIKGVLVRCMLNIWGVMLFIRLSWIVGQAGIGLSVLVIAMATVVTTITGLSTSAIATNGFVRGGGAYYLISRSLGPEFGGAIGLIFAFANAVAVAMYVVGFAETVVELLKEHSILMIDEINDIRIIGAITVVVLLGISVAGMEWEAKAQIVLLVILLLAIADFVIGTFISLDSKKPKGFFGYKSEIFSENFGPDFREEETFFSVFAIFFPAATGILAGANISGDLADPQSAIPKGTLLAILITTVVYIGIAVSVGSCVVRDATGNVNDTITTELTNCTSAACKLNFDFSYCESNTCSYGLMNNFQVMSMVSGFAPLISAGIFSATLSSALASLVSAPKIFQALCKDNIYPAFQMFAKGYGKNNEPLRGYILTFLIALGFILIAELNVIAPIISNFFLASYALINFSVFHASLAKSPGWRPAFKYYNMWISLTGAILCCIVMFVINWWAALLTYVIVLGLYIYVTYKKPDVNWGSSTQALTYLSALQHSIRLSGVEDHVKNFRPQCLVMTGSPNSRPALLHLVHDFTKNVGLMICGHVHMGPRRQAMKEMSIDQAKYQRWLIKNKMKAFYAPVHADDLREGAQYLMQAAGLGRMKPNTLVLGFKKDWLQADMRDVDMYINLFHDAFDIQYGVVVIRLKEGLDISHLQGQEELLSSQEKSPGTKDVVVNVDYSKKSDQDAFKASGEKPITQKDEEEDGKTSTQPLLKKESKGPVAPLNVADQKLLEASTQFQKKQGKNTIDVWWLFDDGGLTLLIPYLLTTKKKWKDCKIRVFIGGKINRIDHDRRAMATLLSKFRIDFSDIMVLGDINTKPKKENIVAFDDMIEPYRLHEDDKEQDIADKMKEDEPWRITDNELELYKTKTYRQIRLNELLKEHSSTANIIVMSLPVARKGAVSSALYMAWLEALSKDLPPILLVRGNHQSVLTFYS
Description: Na^+K^+Cl^− co-transporter activity was measured in vitro in A7r5 cells by measuring their uptake of ^86Rb (0.2 μCi) in 10 minutes at 37° C. as detected by scintillation counting. See Chassande, et al. (1988) “The Na^+/K^+/Cl^− Cotransport in C6 glioma cells. Properties and role in volume regulation.” Eur. J. Biochem. 171: 425433.

[3] = read-out: Percent reduction in Seizures
[4] = read-out: Percent reduction in Seizures Severity

OC[C@@H](O)[C@@H](O)[C@H](O)[C@H](O)CO [Mannitol, reference compound]
Seizures Severity Mean ± SD (grade 0 to IV) [1]: 0.5000 ± 0.7071
Seizures Mean ± SD (1 = yes, 0 = no) [1]: 0.4000 ± 0.5164
change in vivo at 20 µmol/kg [1, 3]: -55.5%
change in vivo at 20 µmol/kg [1, 4]: -79.2%

CCCCNc1cc(C(=O)N(CC)CC)cc(S(N)(=O)=O)c1Oc1ccccc1 [NTP-2007, N,N-Diethyl 3-Aminosulfonyl-5-butylamino-4-phenoxybenzamide]
inhibition at 10 µM [2]: 30%
remaining activity at 10 µM [2]: 70.4%
Seizures Severity Mean ± SD (grade 0 to IV) [1]: 1.500 ± 1.354
Seizures Mean ± SD (1 = yes, 0 = no) [1]: 0.6000 ± 0.5164
change in vivo at 20 µmol/kg [1, 3]: -33.3%
change in vivo at 20 µmol/kg [1, 4]: -37.5%

CCCCNc1cc(C(=O)N(C)C)cc(S(N)(=O)=O)c1Oc1ccccc1 [NTP-2015, N,N-Dimethyl 3-Aminosulfonyl-5-N-butylamino-4-phenoxybenzamide]
Seizures Severity Mean ± SD (grade 0 to IV) [1]: 1.100 ± 1.197
Seizures Mean ± SD (1 = yes, 0 = no) [1]: 0.5000 ± 0.5270
change in vivo at 20 µmol/kg [1, 3]: -44.4%
change in vivo at 20 µmol/kg [1, 4]: -54.2%

CCCCNc1cc(C(=O)NC)cc(S(N)(=O)=O)c1Oc1ccccc1 [NTP-2016, N-Methyl 3-Aminosulfonyl-5-N-butylamino-4-phenoxybenzamide]
% Inhibition of Control Values [2]: −7%
% of Control Value [2]: 107.2%

CCCCNc1cc(C(=O)NCc2ccccc2)cc(S(N)(=O)=O)c1Oc1ccccc1 [NTP-2018, N-Benzyl 3-Aminosulfonyl-5-N-butylamino-4-phenoxybenzamide]
% Inhibition of Control Values [2]: 13%
% of Control Value [2]: 87.3%

CCCCNc1cc(C(=O)N[C@H](C)c2ccccc2)cc(S(N)(=O)=O)c1Oc1ccccc1 [NTP-2020, (R)-α-Methylbenzyl 3-Aminosulfonyl-5-N-butylamino-4-phenoxybenzamide]
% Inhibition of Control Values [2]: 7%
% of Control Value [2]: 93.5%

CCCCNc1cc(C(=O)N[C@@H](C)c2ccccc2)cc(S(N)(=O)=O)c1Oc1ccccc1 [NTP-2021, (S)-α-Methylbenzyl 3-Aminosulfonyl-5-N-butylamino-4-phenoxybenzamide]
% Inhibition of Control Values [2]: 27%
% of Control Value [2]: 72.6%

CCCCNc1cc(C(=O)N2CCCC2)cc(S(N)(=O)=O)c1Oc1ccccc1 [NTP-2022, N-Pyrrolidinyl Aminosulfonyl-5-N-butylamino-4-phenoxybenzamide]
inhibition at 10 µM [2]: 7%
remaining activity at 10 µM [2]: 92.7%
Seizures Severity Mean ± SD (grade 0 to IV) [1]: 1.100 ± 1.101
Seizures Mean ± SD (1 = yes, 0 = no) [1]: 0.6000 ± 0.5164
change in vivo at 20 µmol/kg [1, 3]: -33.3%
change in vivo at 20 µmol/kg [1, 4]: -54.2%

CCCCNc1cc(C(=O)NN2CCCCC2)cc(S(N)(=O)=O)c1Oc1ccccc1 [NTP-2023, N-Piperidinyl 3-Aminosulfonyl-5-N-butylamino-4-phenoxybenzamide]
% Inhibition of Control Values [2]: 23%
% of Control Value [2]: 77.3%

CCCCNc1cc(C(=O)NCCCN(C)C)cc(S(N)(=O)=O)c1Oc1ccccc1 [NTP-2025]
inhibition at 10 µM [2]: -27%
remaining activity at 10 µM [2]: 127%

CCCCCCCCCCOC(=O)c1cc(NCCCC)c(Oc2ccccc2)c(S(N)(=O)=O)c1 [NTP-2028, n-Decyl Aminosulfonyl-5-N-butylamino-4-phenoxybenzoate]
% Inhibition of Control Values [2]: 16%
% of Control Value [2]: 84.4%

CCCCNc1cc(C(=O)OCC=C(C)C)cc(S(N)(=O)=O)c1Oc1ccccc1 [NTP-2029, 3-Methylbut-2-enyl Aminosulfonyl-5-N-butylamino-4-phenoxybenzoate]
% Inhibition of Control Values [2]: 12%
% of Control Value [2]: 88.4%

CCCCNc1cc(C(=O)OCc2ccc(OC)cc2)cc(S(N)(=O)=O)c1Oc1ccccc1 [NTP-2031, 4-Methoxybenzyl Aminosulfonyl-5-N-butylamino-4-phenoxybenzoate]
% Inhibition of Control Values [2]: 7%
% of Control Value [2]: 92.6%

CCCCNc1cc(C(=O)OCCCCc2ccccc2)cc(S(N)(=O)=O)c1Oc1ccccc1 [NTP-2034, 4-phenylbutyl 3-Aminosulfonyl-5-N-butylamino-4-phenoxybenzoate]
% Inhibition of Control Values [2]: 21%
% of Control Value [2]: 78.9%

CCCCNc1cc(C(=O)O[C@H](C)c2ccccc2)cc(S(N)(=O)=O)c1Oc1ccccc1 [NTP-2035, (R)-α-Methylbenzyl 3-Aminosulfonyl-5-N-butylamino-4-phenoxybenzoate]
% Inhibition of Control Values [2]: 26%
% of Control Value [2]: 74.5%

CCCCNc1cc(C(=O)O[C@@H](C)c2ccccc2)cc(S(N)(=O)=O)c1Oc1ccccc1 [NTP-2036, (S)-α-Methylbenzyl 3-Aminosulfonyl-5-N-butylamino-4-phenoxybenzoate]
% Inhibition of Control Values [2]: 20%
% of Control Value [2]: 80.1%
